Experimental data from ChEMBL document CHEMBL1201862, “PubChem BioAssay data set” (2004).
Active and inactive are the calls of the source.

What was measured:
cells [1] = format: functional, cell-based
cells [2] = format: functional, cell-based; remark: listed apart in the source
[3] = P. falciparum Dd2 growth inhibitors, dose response, SYBR Green, cherry-picked samples (AID 1159567); format: functional, cell-based
[4] = toxicity to human hepatoma HepG2 cells – cell-based, cherry-picked samples, cytotoxicity control, dose response (AID 1159577); format: functional
[5] = Trypanosoma cruzi growth suppression in host cells – NIH3T3 host cells, beta-gal luminescence, confirmation (AID 2044); format: functional, cell-based;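 note: intracellular parasites grown in NIH/3T3 mouse fibroblasts as host cells; luminescent beta-galactosidase reporter signal from transgenic T. cruzi replicating inside host cells; inhibitors lower the luminescence signal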
[6] = NIH3T3 cell viability loss – ATP luminescence, mouse fibroblasts, counter-screen, dose response (AID 2010); format: functional, cell-based;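 note: cells exposed to compound for about 90 hours before reading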
cells [7] = experiment: cells
[8] = growth inhibition of yeast DHODH-expressing 3D7 parasites – SYBR Green, dry powder samples, dose response (AID 1159570); format: functional, cell-based;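 note: parasite growth measured after 72 hours of compound exposure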
[9] = Dd2 malaria parasite growth inhibition potency – SYBR Green, dry powder samples, dose response (AID 1159566); format: functional, cell-based;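 note: potency for growth inhibition with lower SYBR green DNA signal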
[10] = growth inhibition of PfATP4-mutant resistant parasites – NITD609-resistant line, SYBR Green, dry powder, dose response (AID 1159571); format: functional, cell-based;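 note: parasites synchronized at ring stage by sorbitol before testing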
[11] = molecular target: T1, Fructose-bisphosphate aldolase (Mycobacterium tuberculosis, UniProt P9WQA3); experiment: Fluorescence-based biochemical high throughput dose response assay for inhibitors of the fructose-bisphosphate aldolase (FBA) of M. tuberculosis.; format: functional
T1 sequence (P9WQA3 whole entry): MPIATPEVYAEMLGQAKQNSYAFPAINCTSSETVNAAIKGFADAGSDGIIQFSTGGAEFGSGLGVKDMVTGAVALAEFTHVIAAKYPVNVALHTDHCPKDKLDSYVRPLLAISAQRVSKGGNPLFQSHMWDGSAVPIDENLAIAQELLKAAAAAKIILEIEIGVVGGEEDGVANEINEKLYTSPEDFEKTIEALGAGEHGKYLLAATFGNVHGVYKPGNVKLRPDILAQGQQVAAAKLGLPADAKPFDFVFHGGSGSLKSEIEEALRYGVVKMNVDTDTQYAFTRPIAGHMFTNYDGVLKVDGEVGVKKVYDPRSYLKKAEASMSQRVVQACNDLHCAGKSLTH

Vero = experiment: mammalian cell viability reduction – secondary assay, cytotoxicity control for West Nile virus antiviral project, dose response (AID 1650); format: functional; details: Chlorocebus sabaeus

For `O=C(CNC(=O)c1cccc(F)c1)N/N=C/C=C/c1ccccc1`, the IC50 (cells [1]) was > 29.9 µM (inactive) and the EC50 (cells [2]) was > 29.9 µM (inactive).

For `CC(C)CC#Cc1ccc([C@H]2[C@H](CO)N3CCCCN(S(=O)(=O)Cc4ccccc4)C[C@@H]23)cc1`, the AC50 [3] was 4.8 µM (active) and the AC50 [4] was 9.45 µM (active).

In the case of `COc1ccc(CN2CCCC(N3CCN(c4cccc(Cl)c4)CC3)C2)cc1OC` (centres undefined), the EC50 [5] is reported as < 0.1 µM (active), the EC50 [6] is reported as > 60 µM (not active) and the EC50 (cells [7]) is reported as 0.038 µM (active).

In the case of `COc1ccc2c3c(n(C)c2c1)[C@@H](CO)N(C(=O)C1CCCC1)CC31CCN(C(=O)Nc2cccc(F)c2)CC1`, the AC50 [8] is reported as 0.0947 µM (active), the AC50 [3] is reported as 0.672 µM (active) and the AC50 [9] is reported as 0.418 µM (active). For the same molecule, the AC50 [10] was 0.239 µM (active).

With `C[C@@H]1CN([C@H](C)CO)C(=O)c2ccccc2-c2ccccc2CO[C@@H]1CN(C)Cc1ccccc1C(F)(F)F` the AC50 [3] was 2.79 µM (active) and the AC50 [4] was 15.7 µM (active).

For `Cc1cc2c(SCc3ccccc3Cl)nc(N)nc2nc1C`, the IC50 [11] was 0.833 µM (active).

In the case of `C[C@H](CO)N1C[C@H](C)[C@H](CN(C)C(=O)c2cc(Cl)cc(Cl)c2)OCc2ccccc2-c2c(n(C)c3ccccc23)C1=O`, the AC50 [3] is reported as 4.11 µM (active) and the AC50 [4] is reported as > 39 µM (inactive).

For `COC(=O)CN(c1ccc2c(c1)OCCO2)S(=O)(=O)c1ccccc1`, the IC50 [11] was > 9.99 µM (inactive).

With `CC(C)N1C(=O)/C(=C/c2nc3ccccc3c(=O)n2-c2ccccc2)c2ccccc21` the CC50 (Vero) was 27.3 µM (active) and the EC50 [5] was 0.997 µM (active).
